Results on 55 molecules are retold here after ChEMBL document CHEMBL2407040, “Discovery and optimization of 7-aminofuro[2,3-c]pyridine inhibitors of TAK1” (Bioorg Med Chem Lett, 2013).

The structures appear in SMILES notation.

The target of data set [1] is T1, Mitogen-activated protein kinase kinase kinase 7 (Homo sapiens, UniProt O43318).
T1 sequence (O43318 whole entry): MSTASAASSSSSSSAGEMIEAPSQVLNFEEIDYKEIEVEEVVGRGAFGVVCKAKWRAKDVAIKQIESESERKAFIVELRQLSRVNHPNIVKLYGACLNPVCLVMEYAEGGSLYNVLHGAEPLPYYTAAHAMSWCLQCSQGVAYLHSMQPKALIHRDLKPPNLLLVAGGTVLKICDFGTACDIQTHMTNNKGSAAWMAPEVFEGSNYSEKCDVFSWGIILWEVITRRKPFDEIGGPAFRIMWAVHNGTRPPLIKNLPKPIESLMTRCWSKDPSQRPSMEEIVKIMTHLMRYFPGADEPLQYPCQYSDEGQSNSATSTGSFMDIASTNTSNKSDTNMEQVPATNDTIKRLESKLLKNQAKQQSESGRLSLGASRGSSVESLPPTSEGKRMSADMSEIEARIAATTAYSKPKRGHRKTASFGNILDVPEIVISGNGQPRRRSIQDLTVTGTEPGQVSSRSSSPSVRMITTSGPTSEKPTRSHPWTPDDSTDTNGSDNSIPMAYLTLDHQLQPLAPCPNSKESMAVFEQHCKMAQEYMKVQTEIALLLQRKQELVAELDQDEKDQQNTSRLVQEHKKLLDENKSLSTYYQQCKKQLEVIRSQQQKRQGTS
In words: Inhibition of TAK1 in human HCT116 cells assessed as inhibition of TNF-alpha-stimulated JNK phosphorylation. It counts as cell-based, HCT-116.

Data set [2] concerns the target TAK1/TAB1 (Homo sapiens, UniProt O43318). In words: Inhibition of truncated TAK1-TAB1(unknown origin) using MKK7 as substrate by ALPHAScreen assay in presence of ATP. The data set is classed as protein-complex assay. A general note: In Alpha technology, singlet oxygen from a donor bead excites a nearby acceptor bead.
Data set [3] in a line: Metabolic stability in human liver microsomes assessed as extraction ratio. The data set is classed as ADME, Microsome. Particulars: read-out: ERH. (Liver microsomes are a subcellular fraction often used to study metabolism.)
Data set [4] in a line: Metabolic stability in mouse liver microsomes assessed as extraction ratio. The data set is classed as ADME, Microsome. Particulars: read-out: ERH.

Sequence of TAK1/TAB1 (Q15750 whole entry, one chain of several, the tested form may be a part): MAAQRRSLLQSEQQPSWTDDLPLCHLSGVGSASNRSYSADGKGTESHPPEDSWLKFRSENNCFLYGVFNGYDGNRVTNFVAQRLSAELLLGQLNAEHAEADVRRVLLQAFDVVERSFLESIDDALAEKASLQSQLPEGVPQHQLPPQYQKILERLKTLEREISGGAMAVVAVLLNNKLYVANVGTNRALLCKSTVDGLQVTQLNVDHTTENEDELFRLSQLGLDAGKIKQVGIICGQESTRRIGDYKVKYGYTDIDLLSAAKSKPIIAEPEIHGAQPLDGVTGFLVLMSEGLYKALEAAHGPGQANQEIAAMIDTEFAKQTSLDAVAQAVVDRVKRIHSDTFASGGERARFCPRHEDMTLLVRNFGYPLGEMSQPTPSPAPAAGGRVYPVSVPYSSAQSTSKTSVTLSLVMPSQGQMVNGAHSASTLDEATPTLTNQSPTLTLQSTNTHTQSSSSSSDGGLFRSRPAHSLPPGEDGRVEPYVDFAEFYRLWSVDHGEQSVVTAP

Consider `CC(=O)N1CCC(n2cc(-c3cnc(N)c4oc(-c5cccc(N(C)C)c5)cc34)cn2)CC1`, for which the IC50 amounted to 690 nM in data set [1] and 2400 nM in data set [2].

Take `CC(=O)N1CCC(n2cc(-c3cnc(N)c4oc(-c5ccc(OC(F)(F)F)cc5)cc34)cn2)CC1`: the IC50 in data set [1] is 8000 nM; in data set [2], 3500 nM.

Take `CC(=O)N1CCC(n2cc(-c3cnc(N)c4oc(-c5ccc(C#N)cc5)cc34)cn2)CC1`: the figures for the IC50 in data set [1] and in data set [2] were 2800 nM and 2500 nM, respectively.

Regarding `CC(=O)N1CCC(n2cc(-c3cnc(N)c4oc(-c5ccc(C(=O)N(C)C)cc5)cc34)cn2)CC1`, the IC50 in data set [2] was > 30000 nM.

Take `CC(=O)N1CCC(n2cc(-c3cnc(N)c4oc(-c5ccc(CO)cc5)cc34)cn2)CC1`: the IC50 in data set [1] was found to be 4400 nM; in data set [2] it was 2800 nM.

In the case of `CC(=O)N1CCC(n2cc(-c3cnc(N)c4oc(-c5ccc(CC#N)cc5)cc34)cn2)CC1`, the results for the half-inhibitory concentration (IC50) in data set [1] and in data set [2] were 1900 nM and 1500 nM, respectively.

With `CC(=O)N1CCC(n2cc(-c3cnc(N)c4oc(-c5cccc6nnsc56)cc34)cn2)CC1`, the IC50 amounted to 12 nM in data set [1] and 4 nM in data set [2]. The hepatic extraction ratio in data set [3] came to 0.68; in data set [4] it was 0.7.

Regarding `CC(=O)N1CCC(n2cc(-c3cnc(N)c4oc(-c5csc6cnccc56)cc34)cn2)CC1`, the results for the 50% inhibitory concentration (IC50) in data set [1] and in data set [2] were 110 nM and 30 nM, respectively. For the same molecule, the figures for the hepatic extraction ratio in data set [3] and in data set [4] were 0.68 and 0.72, respectively.

In the case of `CC(=O)N1CCC(n2cc(-c3cnc(N)c4oc(-c5cn(C)c6cnccc56)cc34)cn2)CC1`, the IC50 in data set [1] is 340 nM; in data set [2] it was 18 nM. Moreover, the figures for the hepatic extraction ratio in data set [3] and in data set [4] were 0.64 and 0.91, respectively.

Take `CC(=O)N1CCC(n2cc(-c3cnc(N)c4oc(-c5cccc6ccccc56)cc34)cn2)CC1`: the IC50 in data set [1] is 1200 nM; in data set [2], 1000 nM. In addition, the results for the hepatic extraction ratio in data set [3] and in data set [4] were 0.66 and 0.77, respectively.

Take `CC(=O)N1CCC(n2cc(-c3cnc(N)c4oc(-c5csc6ccccc56)cc34)cn2)CC1`: the figures for the IC50 in data set [1] and in data set [2] were 440 nM and 340 nM, respectively. Further, the results for the hepatic extraction ratio in data set [3] and in data set [4] were 0.68 and 0.85, respectively.

`CC(=O)N1CCC(n2cc(-c3cnc(N)c4oc(-c5cnc6cnccn56)cc34)cn2)CC1`: the hepatic extraction ratio was determined as 0 in data set [3] and 0.52 in data set [4]. Also, the IC50 in data set [2] stood at 1400 nM.

On to `CC(=O)N1CCC(n2cc(-c3cnc(N)c4oc(-c5cccc(C#N)c5)cc34)cn2)CC1`, for which the IC50 in data set [1] was determined as 370 nM; in data set [2] it was 250 nM.

`CC(=O)N1CCC(n2cc(-c3cnc(N)c4oc(-c5cccc(C(F)(F)F)c5)cc34)cn2)CC1`: the results for the IC50 in data set [1] and in data set [2] were 1600 nM and 2800 nM, respectively.

For `CC(=O)c1cccc(-c2cc3c(-c4cnn(C5CCN(C(C)=O)CC5)c4)cnc(N)c3o2)c1`, the figures for the IC50 in data set [1] and in data set [2] were 1000 nM and 2800 nM, respectively.

Turning to `CC(=O)N1CCC(n2cc(-c3cnc(N)c4oc(-c5cccc(C(N)=O)c5)cc34)cn2)CC1`, the IC50 in data set [1] is 3100 nM; in data set [2], 530 nM.

Turning to `CC(=O)N1CCC(n2cc(-c3cnc(N)c4oc(-c5cccc(CN)c5)cc34)cn2)CC1`, the IC50 in data set [1] turned out to be 4000 nM; in data set [2], 790 nM.

Take `CC(=O)N1CCC(n2cc(-c3cnc(N)c4oc(-c5cccc(CO)c5)cc34)cn2)CC1`: the IC50 is 470 nM in data set [1] and 850 nM in data set [2].

With `CSc1ccc(-c2cc3c(-c4cnn(C5CCN(C(C)=O)CC5)c4)cnc(N)c3o2)cc1`, the IC50 worked out at 5200 nM in data set [1] and 17500 nM in data set [2].

As for `CC(=O)N1CCC(n2cc(-c3cnc(N)c4oc(-c5ccc(S(C)(=O)=O)cc5)cc34)cn2)CC1`, the IC50 is > 20000 nM in data set [1] and 25700 nM in data set [2].

As to `CC(=O)N1CCC(n2cc(-c3cnc(N)c4oc(-c5ccc(N)cc5)cc34)cn2)CC1`, the IC50 in data set [1] was found to be 1000 nM; in data set [2] it was 1800 nM.

On to `CC(=O)N1CCC(n2cc(-c3cnc(N)c4oc(-c5ccc(NS(C)(=O)=O)cc5)cc34)cn2)CC1`, for which the IC50 in data set [2] was 4900 nM.

As for `CC(=O)N1CCC(n2cc(-c3cnc(N)c4oc(-c5ccc(O)cc5)cc34)cn2)CC1`, the IC50 in data set [1] was 500 nM; in data set [2] it was 270 nM.

For the molecule `CC(=O)N1CCC(n2cc(-c3cnc(N)c4oc(-c5cnsc5)cc34)cn2)CC1`, the IC50 in data set [2] was 880 nM.

As for `CSc1ccccc1-c1cc2c(-c3cnn(C4CCN(C(C)=O)CC4)c3)cnc(N)c2o1`, the IC50 in data set [1] turned out to be 500 nM; in data set [2], 430 nM.

Consider `CC(=O)Nc1ccccc1-c1cc2c(-c3cnn(C4CCN(C(C)=O)CC4)c3)cnc(N)c2o1`, for which the IC50 in data set [2] is > 30000 nM.

`CC(=O)N1CCC(n2cc(-c3cnc(N)c4oc(-c5ccccc5C#N)cc34)cn2)CC1`: the IC50 came out at 1700 nM in data set [1] and 560 nM in data set [2].

Take `CC(=O)N1CCC(n2cc(-c3cnc(N)c4oc(-c5ccccc5C(F)(F)F)cc34)cn2)CC1`: the IC50 in data set [2] is > 30000 nM.

For `CC(=O)c1ccccc1-c1cc2c(-c3cnn(C4CCN(C(C)=O)CC4)c3)cnc(N)c2o1`, the results for the 50% inhibitory concentration (IC50) in data set [1] and in data set [2] were 3100 nM and 5400 nM, respectively.

As to `CC(=O)N1CCC(n2cc(-c3cnc(N)c4oc(-c5ccccc5C(N)=O)cc34)cn2)CC1`, the IC50 in data set [1] is 4500 nM; in data set [2] it was 6000 nM.

For the molecule `CC(=O)N1CCC(n2cc(-c3cnc(N)c4oc(-c5ccccc5CO)cc34)cn2)CC1`, the IC50 in data set [1] was 1500 nM; in data set [2], 750 nM.

Turning to `COCc1ccccc1-c1cc2c(-c3cnn(C4CCN(C(C)=O)CC4)c3)cnc(N)c2o1`, the IC50 was 1800 nM in data set [1] and 1400 nM in data set [2].

As for `CC(=O)N1CCC(n2cc(-c3cnc(N)c4oc(-c5ccccc5CC#N)cc34)cn2)CC1`, the IC50 came to 530 nM in data set [1] and 250 nM in data set [2].

For the molecule `CSc1cccc(-c2cc3c(-c4cnn(C5CCN(C(C)=O)CC5)c4)cnc(N)c3o2)c1`, the IC50 was 1200 nM in data set [1] and 4300 nM in data set [2].

Regarding `CC(=O)N1CCC(n2cc(-c3cnc(N)c4oc(-c5cccc(S(C)(=O)=O)c5)cc34)cn2)CC1`, the IC50 amounted to 1100 nM in data set [1] and 4900 nM in data set [2].

As for `CC(=O)N1CCC(n2cc(-c3cnc(N)c4oc(-c5cccc(S(N)(=O)=O)c5)cc34)cn2)CC1`, the 50% inhibitory concentration (IC50) in data set [2] is 1800 nM.

Consider `CC(=O)N1CCC(n2cc(-c3cnc(N)c4oc(-c5cccc(S(=O)(=O)N(C)C)c5)cc34)cn2)CC1`, for which the IC50 amounted to 1100 nM in data set [1] and 1400 nM in data set [2].

As to `CC(=O)N1CCC(n2cc(-c3cnc(N)c4oc(-c5cccc([N+](=O)[O-])c5)cc34)cn2)CC1`, the IC50 in data set [1] is 200 nM; in data set [2], 89 nM.

For `CC(=O)N1CCC(n2cc(-c3cnc(N)c4oc(-c5cccc(N)c5)cc34)cn2)CC1`, the IC50 in data set [1] worked out at 510 nM; in data set [2], 770 nM.

In the case of `CC(=O)Nc1cccc(-c2cc3c(-c4cnn(C5CCN(C(C)=O)CC5)c4)cnc(N)c3o2)c1`, the IC50 in data set [1] stood at 9000 nM; in data set [2] it was 3200 nM.

Turning to `CC(=O)N1CCC(n2cc(-c3cnc(N)c4oc(-c5cccc(O)c5)cc34)cn2)CC1`, the IC50 is 610 nM in data set [1] and 61 nM in data set [2].

On to `COc1cccc(-c2cc3c(-c4cnn(C5CCN(C(C)=O)CC5)c4)cnc(N)c3o2)c1`, for which the IC50 in data set [1] was found to be 1200 nM; in data set [2], 1800 nM.

`COCCOc1cccc(-c2cc3c(-c4cnn(C5CCN(C(C)=O)CC5)c4)cnc(N)c3o2)c1`: the results for the IC50 in data set [1] and in data set [2] were 2700 nM and 3200 nM, respectively.

For `CC(=O)N1CCC(n2cc(-c3cnc(N)c4oc(-c5cccc(OC(F)(F)F)c5)cc34)cn2)CC1`, the IC50 was 1800 nM in data set [1] and 3500 nM in data set [2].

Turning to `CC(=O)N1CCC(n2cc(-c3cnc(N)c4oc(-c5ccccc5)cc34)cn2)CC1`, the IC50 in data set [1] came to 520 nM; in data set [2] it was 1100 nM.

For the molecule `CC(=O)N1CCC(n2cc(-c3cnc(N)c4oc(-c5cccnc5)cc34)cn2)CC1`, the IC50 in data set [2] stood at 710 nM.

As to `CC(=O)N1CCC(n2cc(-c3cnc(N)c4oc(C5=CCNCC5)cc34)cn2)CC1`, in data set [2], the IC50 was 800 nM.

As for `CC(=O)N1CCC(n2cc(-c3cnc(N)c4oc(C5=CCCCC5)cc34)cn2)CC1`, the IC50 in data set [2] is 460 nM.

Regarding `CC(=O)N1CCC(n2cc(-c3cnc(N)c4oc(C5CCCCC5)cc34)cn2)CC1`, in data set [2], the IC50 was 650 nM.

For the molecule `CC(=O)N1CCC(n2cc(-c3cnc(N)c4oc(C5=CCCC5)cc34)cn2)CC1`, in data set [2], the IC50 was 1200 nM.

For the molecule `CC(=O)N1CCC(n2cc(-c3cnc(N)c4oc(C5CCCC5)cc34)cn2)CC1`, the IC50 in data set [2] was 2100 nM.

Turning to `CC(=O)N1CCC(n2cc(-c3cnc(N)c4oc(-c5ccsc5)cc34)cn2)CC1`, the IC50 in data set [2] turned out to be 480 nM.

Turning to `CC(=O)N1CCC(n2cc(-c3cnc(N)c4oc(-c5cn[nH]c5)cc34)cn2)CC1`, the IC50 in data set [1] was 9100 nM; in data set [2], 130 nM.

As to `CC(=O)N1CCC(n2cc(-c3cnc(N)c4oc(-c5cnn(C)c5)cc34)cn2)CC1`, in data set [2], the IC50 came to 1600 nM.

`CC(=O)N1CCC(n2cc(-c3cnc(N)c4oc(-c5cnco5)cc34)cn2)CC1`: the concentration for half-maximal inhibition (IC50) in data set [2] came out at 1200 nM.

Usually IC50 stands for the concentration at which inhibition is half-maximal.
